For data set [1], the target named is T1, ECE-1 (Bos taurus, UniProt P42891).
T1 construct: The entire coding regions from bovine ECE-1; made in house
T1 sequence (P42891 with tags, fused parts or gaps A87G/A695G limits assumed): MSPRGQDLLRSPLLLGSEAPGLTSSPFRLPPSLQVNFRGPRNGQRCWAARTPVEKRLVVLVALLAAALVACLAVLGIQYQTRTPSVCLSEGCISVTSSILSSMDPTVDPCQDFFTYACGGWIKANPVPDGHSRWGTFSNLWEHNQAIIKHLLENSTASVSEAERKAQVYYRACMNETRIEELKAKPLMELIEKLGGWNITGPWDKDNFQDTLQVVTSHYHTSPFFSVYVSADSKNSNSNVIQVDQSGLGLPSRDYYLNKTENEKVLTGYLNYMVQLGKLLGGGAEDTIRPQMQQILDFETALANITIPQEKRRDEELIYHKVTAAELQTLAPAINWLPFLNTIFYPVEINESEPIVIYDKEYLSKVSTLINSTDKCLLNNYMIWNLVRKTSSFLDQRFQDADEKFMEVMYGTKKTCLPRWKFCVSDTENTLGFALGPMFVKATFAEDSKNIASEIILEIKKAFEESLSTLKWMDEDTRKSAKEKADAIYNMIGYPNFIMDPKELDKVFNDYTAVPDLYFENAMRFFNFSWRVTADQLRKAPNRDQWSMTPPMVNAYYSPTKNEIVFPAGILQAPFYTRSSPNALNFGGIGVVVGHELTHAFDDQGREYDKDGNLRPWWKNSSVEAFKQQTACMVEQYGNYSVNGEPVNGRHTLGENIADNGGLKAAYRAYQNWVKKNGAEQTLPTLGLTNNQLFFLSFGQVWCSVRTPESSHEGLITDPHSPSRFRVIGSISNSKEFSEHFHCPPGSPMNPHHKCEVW
The data set is described as follows: Reconstitution of ECE-1 activity by metal ions after EDTA stripping. As to conditions: ZnCl2 300 μM after 30 μM EDTA. The data set is classed as biochemical, bovine. As to the method: FIG. 2D. […] After incubating on ice for 15 min, the designated concentrations of metal ions were added as chloride salt and ECE activity was measured.
(§1) Reaction mixtures for ECE assay (50 μl) contained 0.1M sodium phosphate buffer (pH 6.8), 0.5M NaCl, 0.1 μM human big ET-1(1-38) and enzyme fraction. For some studies, the reactions were preincubated at 37° C. with various protease inhibitors for 15 minutes prior to the addition of big ET-1. The reactions were incubated at 37° C. for 30 min in siliconized 0.5-ml microcentrifuge tubes. […] Duplicate assay wells were used for each enzyme reaction. Protein concentration was determined by the Bradford method (Bio-Rad) using IgG as standard.
Approximately 3,000-cm^2 confluent monolayers of cells (≈10^8 cells) were rinsed twice with ice-cold PBS. Cells were scraped off by a rubber policeman in ice-cold PBS, and collected by centrifugation. All subsequent procedures were performed at 4° C. Cells were resuspended in 10×volume of buffer B (20 mM Tris-HCl (pH 7.4)/20 μM pepstatin A/1 mM PMSF/1 MM pCMS/250 mM sucrose), and homogenized by a 30-ml Teflon homogenizer with the piston rotating at 300 r.p.m. […]

For data set [2] the following is noted: ET-1(1-20) and ET-1(1-22) relative to authentic ET-1(1-21); cited from earlier work.
In the next data set the test system is NEP. As to conditions: cited from earlier work.
Data set [3] concerns the target T1, ECE-1. In words: Secretion of big and mature ET-1 by preproET-1-transfected CHO/ECE-1 cells (conversion of endogenous big ET-1). Format: cell-based, bovine. As to conditions: preproET-1-transfected CHO/ECE-1 cells.
Method: Transient transfection of the preproET-1 cDNA was performed by the DEAE-dextran method as described (Sakurai et al., 1990). Twelve hours after transfection, cells were refed with fresh medium with or without ECE inhibitors. The medium was conditioned for an additional 12 hours and directly subjected to EIA for mature and big ET-1 (Suzuki et al., 1990; Suzuki et al., 1989). For the Ca^2+ transient bioassay (see below), Phenol Red-free CHO-SFM medium (Gibco/BRL) without serum was used in order to avoid artefacts induced by serum and the dye.
To examine whether the expressed ECE-1 can convert big ET-1 in intact cells, paired cultures of CHO/ECE-1 cells and untransfected CHO cells were transiently transfected with the preproET-1 construct. After the transient transfection, the amounts of mature and big ET-1 secreted into the medium were measured by EIA. […] The functional authenticity of the immunoreactive mature peptide produced from the double-transfected cells was examined with a bioassay system that uses another line of CHO cells expressing human ETA receptors as reporter cells. […] The cells were loaded with the Ca^2+ indicator Fura-2/AM, and directly challenged with serum-free, Phenol Red-free culture supernatants from the aforementioned double-transfection protocols. […] Next the supernatants from the preproET-1-transfected CHO/ECE-1 cells were added, so that the final concentration of ET-1 as measured by EIA was ≈20 pM.
The target of data set [4] is T1, ECE-1. In words: pH profile of ECE-1 activity in solubilized CHO/ECE-1 membranes. Format: biochemical, bovine. As to the method: FIG. 2C. pH profile of ECE-1 activity expressed in solubilized CHO/ECE-1 membranes.
as §1

With `[Cl-].[Cl-].[Zn+2]` [ZnCl2], the “reconstituted ECE activity, of the original levels” value at ECE-1 [1] was “up to 110%”.

As to “mature ET-1: 21-residue mature peptide; human ET-1(1-21) obtained from American Peptides”, the “vasoconstrictor/biological activity (in words)” value in data set [2] is “the most potent vasoconstrictor substance known”. Besides, in the data set on NEP, the “degradation by NEP (in words)” value is “rapidly degrades”. Moreover, the “concentration secreted in culture supernatant” value in the data set with ECE-1 [3] is on record as 241 pM.

B1: ECE-1: novel 758-amino acid polypeptide, bovine endothelin converting enzyme-1 (protein, UniProt P42891 1-754, looked up)
chain: MMSTYKRATLDEEDLVDSLSESDVYPNHLQVNFRGPRNGQRCWAARTPVEKRLVVLVALLAAALVACLAVLGIQYQTRTPSVCLSEACISVTSSILSSMDPTVDPCQDFFTYACGGWIKANPVPDGHSRWGTFSNLWEHNQAIIKHLLENSTASVSEAERKAQVYYRACMNETRIEELKAKPLMELIEKLGGWNITGPWDKDNFQDTLQVVTSHYHTSPFFSVYVSADSKNSNSNVIQVDQSGLGLPSRDYYLNKTENEKVLTGYLNYMVQLGKLLGGGAEDTIRPQMQQILDFETALANITIPQEKRRDEELIYHKVTAAELQTLAPAINWLPFLNTIFYPVEINESEPIVIYDKEYLSKVSTLINSTDKCLLNNYMIWNLVRKTSSFLDQRFQDADEKFMEVMYGTKKTCLPRWKFCVSDTENTLGFALGPMFVKATFAEDSKNIASEIILEIKKAFEESLSTLKWMDEDTRKSAKEKADAIYNMIGYPNFIMDPKELDKVFNDYTAVPDLYFENAMRFFNFSWRVTADQLRKAPNRDQWSMTPPMVNAYYSPTKNEIVFPAGILQAPFYTRSSPNALNFGGIGVVVGHELTHAFDDQGREYDKDGNLRPWWKNSSVEAFKQQTACMVEQYGNYSVNGEPVNGRHTLGENIADNGGLKAAYRAYQNWVKKNGAEQTLPTLGLTNNQLFFLSFAQVWCSVRTPESSHEGLITDPHSPSRFRVIGSISNSKEFSEHFHCPPGSPMNPHHKCEVW
modifications: full-length
B1: in the data set with ECE-1 [4], the “optimal pH of ECE activity” value is given as 6.8.

The record behind these values is patent US5688640A, “Methods of screening of effectors of endothelin converting enzyme-1” (Board of Regents, The University of Texas System, priority 1994, dated 1997).
